Experimental data as given in US11419336B2, “Herbicidal combination” (UPL LTD, priority 2017, dated 2022).

Legend:
Digitaria sanguinalis = test: Field trial, burndown weed control on grasses; type: in vivo; conditions: g ai/ha: saflufenacil 140, metribuzin 1150, pendimethalin 500 alone
Protocol: (§1) Studies were conducted to compare the weed controlling activity of the combination of saflufenacil, a triazine herbicide and pendimethalin. […] Any difference between the observed and “expected” efficacy could be attributed to synergy between the compounds in the control of a broad spectrum of weeds. The expected efficacy of a combination of saflufenacil, a triazine herbicide and an pendimethalin was calculated using the well-established Colby method.
(§2) In the Colby method, the expected (or predicted) response of a combination of herbicides is calculated by taking the product of the observed response for each individual component of the combination when applied alone divided by 100 and subtracting this value from the sum of the observed response for each component when applied alone. An unexpected enhancement in efficacy of the combination is then determined by comparing the observed response of the combination to the expected (or predicted) response as calculated from the observed response of each Individual component alone. If the observed response of the combination is greater than the expected (or predicted) response, or stated conversely, if the difference between the observed and expected response is greater than zero, then the combination is said to be synergistic or unexpectedly effective. (Colby, S. R., Weeds, 1967(15), p. 20-22) The Colby method requires only a single dose of each herbicide applied alone and the mixture of both doses.
(§3) The weed control activity of the individual herbicides of the invention and their combinations were evaluated on weeds such as those belonging to Echinochloa colona, Digitaria sanguinalis, Amaranthus viridis, Commelina benghalensis, and Cyperus rotundus. The trial was carried out in Randomized Complete Block (RCB) method. Each trial was replicated four times and conducted under GEP guidelines. Application volumes were varied for each mixture. Such field trials were carried out at various locations so as to generate independent data, the locations were chosen randomly across India. Saflufenacil, metribuzin and pendimethalin were sprayed according to their recommended dosage.
(§4) The following formula was used to calculate the expected activity of mixtures containing three active ingredients, A, B and C:
(§5) A=observed efficacy of active ingredient A at the same concentration as used in the mixture.
(§6) B=observed efficacy of active ingredient B at the same concentration as used in the mixture.
(§7) C=observed efficacy of active ingredient C at the same concentration as Used in the mixture.

Echinochloa colona = test: Field trial, burndown weed control on grasses; type: in vivo; conditions: g ai/ha: saflufenacil 140, metribuzin 1150, pendimethalin 500 alone
Protocol: as §1, §2, §3, §4, §5, §6, §7

Eleucine indica [1] = test: Field trial, burndown weed control on grasses; type: in vivo; conditions: g ai/ha: saflufenacil 140, metribuzin 1150, pendimethalin 500 alone, mixture 140 + 1150 + 500
Protocol: as §1, §2, §3, §4, §5, §6, §7

Cyperus rotundus = test: Field trial, burndown weed control on sedges; type: in vivo; conditions: g ai/ha: saflufenacil 140, metribuzin 1150, pendimethalin 500 alone, mixture 112 + 920 + 571
Protocol: Studies were conducted to compare the weed controlling activity of the combination of saflufenacil, a triazine herbicide and pendimethalin. […] Any difference between the observed and “expected” efficacy could be attributed to synergy between the compounds in the control of a broad spectrum of weeds. The expected efficacy of a combination of saflufenacil, a triazine herbicide and an pendimethalin was calculated using the well-established Colby method. […] An unexpected enhancement in efficacy of the combination is then determined by comparing the observed response of the combination to the expected (or predicted) response as calculated from the observed response of each Individual component alone. If the observed response of the combination is greater than the expected (or predicted) response, or stated conversely, if the difference between the observed and expected response is greater than zero, then the combination is said to be synergistic or unexpectedly effective. (Colby, S. R., Weeds, 1967(15), p. 20-22) The Colby method requires only a single dose of each herbicide applied alone and the mixture of both doses. The weed control activity of the individual herbicides of the invention and their combinations were evaluated on weeds such as those belonging to Echinochloa colona, Digitaria sanguinalis, Amaranthus viridis, Commelina benghalensis, and Cyperus rotundus. The trial was carried out in Randomized Complete Block (RCB) method. Each trial was replicated four times and conducted under GEP guidelines. Application volumes were varied for each mixture. Such field trials were carried out at various locations so as to generate independent data, the locations were chosen randomly across India. Saflufenacil, metribuzin and pendimethalin were sprayed according to their recommended dosage. The following formula was used to calculate the expected activity of mixtures containing three active ingredients, A, B and C: [formula] • Where A=observed efficacy of active ingredient A at the same concentration as used in the mixture. B=observed efficacy of active ingredient B at the same concentration as used in the mixture. C=observed efficacy of active ingredient C at the same concentration as Used in the mixture.

Digera sp. = test: Field trial, burndown weed control on broadleaf weeds; type: in vivo; conditions: g ai/ha: saflufenacil 140, metribuzin 1150, pendimethalin 500 alone, mixture 112 + 920 + 571
Protocol: as §1, §2, §3, §4, §5, §6, §7

Eleucine indica [2] = test: Field trial, burndown weed control on grasses; type: in vivo; conditions: 15 DAA; g ai/ha: saflufenacil 140, metribuzin 1150, pendimethalin 500 alone; mixture 112 + 920 + 571
weeds = conditions: saflufenacil alone; cited from earlier work
[3] = 15 DAA, mixture 112 + 920 + 571
[4] = 15 DAA, mixture 140 + 1150 + 500
[5] = Table 3, 30 DAA, mixture 140 + 1150 + 500
[6] = Table 4, 30 DAA, mixture 140 + 1150 + 500

| SMILES | % Weed control Burn Down Symptoms Generation, Digitaria sanguinalis, Actual (Digitaria sanguinalis; [3]) [%] | % Weed control Burn Down Symptoms Generation, Digitaria sanguinalis, Actual (Digitaria sanguinalis; [4]) [%] | % Weed control Burn Down Symptoms Generation, Digitaria sanguinalis, Actual (Digitaria sanguinalis; [5]) [%] | % Weed control Burn Down Symptoms Generation, Digitaria sanguinalis, Actual (Digitaria sanguinalis; [6]) [%] | % Weed control Burn Down Symptoms Generation, Echinochloa colona, Actual (Echinochloa colona; [3]) [%] | % Weed control Burn Down Symptoms Generation, Echinochloa colona, Actual (Echinochloa colona; [4]) [%] | % Weed control Burn Down Symptoms Generation, Echinochloa colona, Actual (Echinochloa colona; [5]) [%] | % Weed control Burn Down Symptoms Generation, Echinochloa colona, Actual (Echinochloa colona; [6]) [%] | % Weed control Burn Down Symptoms Generation, Eleucine indica, Actual (Eleucine indica [1]; 15 DAA) [%] | % Weed control Burn Down Symptoms Generation, Eleucine indica, Actual (Eleucine indica [1]; Table 3, 30 DAA) [%] | % Weed control Burn Down Symptoms Generation, Eleucine indica, Actual (Eleucine indica [1]; Table 4, 30 DAA) [%] | % Weed control Burn Down Symptoms Generation, Cyperus rotundus at 15 DAA, Actual (Cyperus rotundus) [%] | % Weed control Burn Down Symptoms Generation, Cyperus rotundus at 30 DAA, Actual (Cyperus rotundus) [%] | % Weed control Burn Down Symptoms Generation, Digera sp. at 15 DAA, Actual (Digera sp.) [%] | % Weed control Burn Down Symptoms Generation, Digera sp. at 30 DAA, Actual (Digera sp.) [%] | % Weed control Burn Down Symptoms Generation, Eleucine indica, Actual (Eleucine indica [2]) [%] | Efficacy in weed control beyond 30 days after treatment (weeds) |
| --- | --- | --- | --- | --- | --- | --- | --- | --- | --- | --- | --- | --- | --- | --- | --- | --- | --- |
| CSc1nnc(C(C)(C)C)c(=O)n1N [Metribuzin, 4-amino-6-tert-butyl-4,5-dihydro-3-methylthio-1,2,4-triazin-5-one] | 13.3 | 13.3 | 10 | 10 | 6.7 | 6.7 | 10 | 10 | 8.3 | 5.7 | 5.7 | 6.7 | 8.3 | 8.3 | 8.3 | 8.3 | – |
| CCC(CC)Nc1c([N+](=O)[O-])cc(C)c(C)c1[N+](=O)[O-] [Pendimethalin, N-(1-ethylpropyl)-2,6-dinitro-3,4-xylidine] | 56.7 | 56.7 | 50 | 50 | 58.3 | 58.3 | 53.3 | 53.3 | 46.7 | 45 | 45 | 31.7 | 25 | 66.7 | 7.0 | 46.7 | – |
| CC(C)N(C)S(=O)(=O)NC(=O)c1cc(-n2c(=O)cc(C(F)(F)F)n(C)c2=O)c(F)cc1Cl [Saflufenacil, N′-{2-chloro-4-fluoro-5-[1,2,3,6-tetrahydro-3-methyl-2,6-dioxo-4-(trifluoromethyl)pyrimidin-1-yl]benzoyl}-N-isopropyl-N-methylsulfamide] | 56.7 | 56.7 | 13.3 | 13.3 | 8.3 | 8.3 | 13 | 13 | 13.3 | 9.3 | 9.3 | 15 | 20 | 69.7 | 68.3 | 13.3 | reduced efficacy |
